# From patent publication US11034692B1 (Genentech, Inc., priority 2017, dated 2021)
# Target: HPK1
# Experiment: HPK1 Lantha Binding Assay ("Lanth")
# Settings: Table B1-1, read-out: HPK1 Ki (μM) (Lanth)
# Experimental: HPK1 Lantha Binding Assay (“Lanth”)
# The compounds to be tested were diluted by preparing 12.5 uL/well of 5 mM compound (100×) in columns 2 and 13 and 10 ul/well of DMSO in columns 3-12, 14-23, and wells A1-H1 and I24-P24 of the compound plate using a Bravo liquid handling platform. For the reference compound, the top concentration was 1 mM. To the plate was added 10 ul 2 mM staurosporine in wells J1-P1 and A24-H24. A 11 point 5-fold compound serial dilution was performed using the Bravo liquid handling platform. From the plate were transferred 2.5 ul of the solutions from column 2 and column 13 to the 10 ul of DMSO in columns 3 and 14 & so on. The compound plate was centrifuged at 2500 rpm for 1 min. From the compound plate was transferred 80 nl of the compounds into an assay plate using the Echo liquid handler system. One compound plate makes two assay plates. Each assay plate is sealed and stored in an N2 cabinet.
# The following assay concentrations and times were used: 2 nM HPK1, 2 nM Eu-Anti-GST Ab, and 15 nM Tracer222, with 60 min incubation time.
# III. HPK Lantha Binding Assay:
# For the binding assay, 4 ul 2×HPK1 and Eu-anti-GST antibody were added to each well of the assay plate using a Multidrop reagent dispenser. The solutions were incubated in a 23 C incubator for 1 h. To each well of the assay plate was added 4 ul 2× Tracer-222 using a Multidrop reagent dispenser. The solutions were again incubated in a 23 C incubator for 1 h. The results of the assay were read using an Envision plate reader with the following parameters: TR_FRET, 340ex/615 and 665em; 100 usec Delay; and 200 usec integration.
# Compound Ki was analyzed using Morrison ki fit model in XL-fit • a. fit=(1−((((E+x)+(Ki*(1+(S/Kd))))−(((((E+x)+(Ki*(1+(S/Kd))))[…])−((4*E)*x))^0.5))/(2*E))) • res=(y-fit) • b. Parameters: • E=enzyme concentration • S=Tracer222 concentration, Kd=Tracer222 Kd • All measurements reported using the same units (uM)
# Exemplary compounds of Formula I or Ia were tested in the binding assays. The Ki data in Table B1-1 are based on the “Lanth” assay.
row,Compound,Ki [nM]
1,"Cc1ccncc1-c1cc2cc(Nc3cnn(CCO)c3)ncc2c(N)n1 [Compound 169, 2-[4-[[8-amino-6-(4-methyl-3-pyridyl)-2,7-naphthyridin-3-yl]amino]pyrazol-1-yl]ethanol]",0.48
2,"Cc1ccncc1-c1cc2cc(Nc3ccn(C)c(=O)c3)ncc2c(N)n1 [Compound 170, 4-[[8-amino-6-(4-methyl-3-pyridyl)-2,7-naphthyridin-3-yl]amino]-1-methyl-pyridin-2-one]",3
3,"Cc1ccncc1-c1cc2cc(NC(=O)Nc3ccccc3C#N)ncc2c(N)n1 [Compound 171, 1-[8-amino-6-(4-methyl-3-pyridyl)-2,7-naphthyridin-3-yl]-3-(2-cyanophenyl)urea]",1500
4,"COCCN1CC(NC(=O)Nc2cc3cc(-c4cnccc4C)nc(N)c3cn2)C1 [Compound 174, 1-(8-amino-6-(4-methylpyridin-3-yl)-2,7-naphthyridin-3-yl)-3-(1-(2-methoxyethyl)azetidin-3-yl)urea]",2.5
5,"Cc1ccncc1-c1cc2cc(NC(=O)NC3CNC3)ncc2c(N)n1 [Compound 175, 1-(8-amino-6-(4-methylpyridin-3-yl)-2,7-naphthyridin-3-yl)-3-(azetidin-3-yl)urea]",3.4
6,"CCc1ccncc1-c1cc2cc(NC(=O)N[C@@H]3CCN(C)C3=O)ncc2c(N)n1 [Compound 176, (R)-1-(8-amino-6-(4-ethylpyridin-3-yl)-2,7-naphthyridin-3-yl)-3-(1-methyl-2-oxopyrrolidin-3-yl)urea]",5.5
7,"CNC(=O)C(C)(C)n1cc(Nc2cc3cc(-c4cnccc4C)nc(N)c3cn2)cn1 [Compound 182, 2-[4-[[8-amino-6-(4-methyl-3-pyridyl)-2,7-naphthyridin-3-yl]amino]pyrazol-1-yl]-N,2-dimethyl-propanamide]",1.2
8,"Cc1ccncc1-c1cc2cc(Nc3cnn(C(C)(C)C(=O)N(C)C)c3)ncc2c(N)n1 [Compound 183, 2-[4-[[8-amino-6-(4-methyl-3-pyridyl)-2,7-naphthyridin-3-yl]amino]pyrazol-1-yl]-N,N,2-trimethyl-propanamide]",0.98
9,"C[C@H]1COC(=O)N1c1cc2cc(NC(=O)[C@@H]3C[C@H]3C#N)ncc2c(N)n1 [Compound 186, trans-N-(8-amino-6-((S)-4-methyl-2-oxooxazolidin-3-yl)-2,7-naphthyridin-3-yl)-2-cyanocyclopropanecarboxamide]",4
10,"Cc1ccncc1-c1cc2cc(NC(=O)[C@H]3C[C@@H]3CC#N)ncc2c(N)n1 [Compound 193, (1S,2R)—N-(8-amino-6-(4-methylpyridin-3-yl)-2,7-naphthyridin-3-yl)-2-(cyanomethyl)cyclopropane-1-carboxamide]",0.135
11,"Cc1ccncc1-c1cc2cc(NC(=O)[C@@H]3C[C@H]3CC#N)ncc2c(N)n1 [Compound 194, (1R,2S)—N-(8-amino-6-(4-methylpyridin-3-yl)-2,7-naphthyridin-3-yl)-2-(cyanomethyl)cyclopropane-1-carboxamide]",0.967
12,"Cc1ccncc1-c1nc(N)c2cnc(NC(=O)[C@H]3C[C@@H]3c3cn[nH]c3)cc2c1F [Compound 195, (1S,2S)—N-(8-amino-5-fluoro-6-(4-methylpyridin-3-yl)-2,7-naphthyridin-3-yl)-2-(1H-pyrazol-4-yl)cyclopropane-1-carboxamide]",0.02
13,"Cc1ccncc1-c1nc(N)c2cnc(NC(=O)[C@@H]3C[C@H]3c3cn[nH]c3)cc2c1F [Compound 196, (1R,2R)—N-(8-amino-5-fluoro-6-(4-methylpyridin-3-yl)-2,7-naphthyridin-3-yl)-2-(1H-pyrazol-4-yl)cyclopropane-1-carboxamide]",6.01
14,"Cc1ccncc1-c1cc2cc(NC(=O)[C@H]3C[C@@H]3c3cnn(C)c3)ncc2c(N)n1 [Compound 197, (1S,2S)—N-(8-amino-6-(4-methylpyridin-3-yl)-2,7-naphthyridin-3-yl)-2-(1-methyl-1H-pyrazol-4-yl)cyclopropane-1-carboxamide]",0.027
15,"Cc1ccncc1-c1cc2cc(NC(=O)[C@@H]3C[C@H]3c3cnn(C)c3)ncc2c(N)n1 [Compound 198, (1R,2R)—N-(8-amino-6-(4-methylpyridin-3-yl)-2,7-naphthyridin-3-yl)-2-(1-methyl-H-pyrazol-4-yl)cyclopropane-1-carboxamide]",0.55
16,"Cc1c(N)cncc1-c1cc2cc(NC(=O)[C@@H]3C[C@H]3C#N)ncc2c(N)n1 [Compound 199, (1R,2R)—N-(8-amino-6-(5-amino-4-methylpyridin-3-yl)-2,7-naphthyridin-3-yl)-2-cyanocyclopropane-1-carboxamide]",3.39
17,"Cc1c(N)cncc1-c1cc2cc(NC(=O)[C@H]3C[C@@H]3C#N)ncc2c(N)n1 [Compound 200, (1S,2S)—N-(8-amino-6-(5-amino-4-methylpyridin-3-yl)-2,7-naphthyridin-3-yl)-2-cyanocyclopropane-1-carboxamide]",0.343

# Continued, values first:
row,Ki [nM],Compound
1,0.4,"Cc1ccncc1-c1cc2cc(NC(=O)[C@H]3C[C@@H]3C#N)ncc2c(N)n1 [Compound 202, (1S,2S)—N-(8-amino-6-(4-methylpyridin-3-yl)-2,7-naphthyridin-3-yl)-2-cyanocyclopropane-1-carboxamide]"
2,0.4,"Cc1ccncc1-c1cc2cc(NC(=O)[C@@H]3C[C@H]3C#N)ncc2c(N)n1 [Compound 203, (1R,2R)—N-(8-amino-6-(4-methylpyridin-3-yl)-2,7-naphthyridin-3-yl)-2-cyanocyclopropane-1-carboxamide]"
3,30.7,"Cc1ccncc1-c1cc2cc(NC(=O)C3CC3(C)CO)ncc2c(N)n1 (centres unmarked) [Compound 209, N-(8-amino-6-(4-methylpyridin-3-yl)-2,7-naphthyridin-3-yl)-2-(hydroxymethyl)-2-methylcyclopropanecarboxamide]"
4,0.039,"Cn1cc([C@@H]2C[C@H]2C(=O)Nc2cc3cc(-c4cnccc4CCO)nc(N)c3cn2)cn1 [Compound 214, (1R,2R)—N-(8-amino-6-(4-(2-hydroxyethyl)pyridin-3-yl)-2,7-naphthyridin-3-yl)-2-(1-methyl-1H-pyrazol-4-yl)cyclopropanecarboxamide]"
5,1.19,"Cn1cc([C@H]2C[C@@H]2C(=O)Nc2cc3cc(-c4cnccc4CCO)nc(N)c3cn2)cn1 [Compound 215, (1S,2S)—N-(8-amino-6-(4-(2-hydroxyethyl)pyridin-3-yl)-2,7-naphthyridin-3-yl)-2-(1-methyl-1H-pyrazol-4-yl)cyclopropanecarboxamide]"
6,0.173,"Cc1ccncc1-c1cc2cc(NC(=O)[C@H]3C[C@@H]3C3CNC(=O)O3)ncc2c(N)n1 (stereo partly drawn) [Compound 231, trans-N-(8-amino-6-(4-methylpyridin-3-yl)-2,7-naphthyridin-3-yl)-2-((S)-2-oxooxazolidin-5-yl)cyclopropanecarboxamide]"
7,0.694,"Cc1ccncc1-c1nc(N)c2cnc(NC(=O)[C@H]3C[C@@H]3c3cnn(C)c3)cc2c1Cl [Compound 233, (1S,2S)—N-(8-amino-5-chloro-6-(4-methylpyridin-3-yl)-2,7-naphthyridin-3-yl)-2-(1-methyl-1H-pyrazol-4-yl)cyclopropanecarboxamide]"
8,0.078,"Cc1ccncc1-c1nc(N)c2cnc(NC(=O)[C@@H]3C[C@H]3c3cnn(C)c3)cc2c1Cl [Compound 234, (1R,2R)—N-(8-amino-5-chloro-6-(4-methylpyridin-3-yl)-2,7-naphthyridin-3-yl)-2-(1-methyl-1H-pyrazol-4-yl)cyclopropanecarboxamide]"
9,0.706,"N#C[C@@H]1C[C@H]1C(=O)Nc1cc2cc(-c3cnccc3-c3cn[nH]c3)nc(N)c2cn1 [Compound 235, (1R,2R)—N-(6-(4-(1H-pyrazol-4-yl)pyridin-3-yl)-8-amino-2,7-naphthyridin-3-yl)-2-cyanocyclopropanecarboxamide]"
10,23.3,"N#C[C@H]1C[C@@H]1C(=O)Nc1cc2cc(-c3cnccc3-c3cn[nH]c3)nc(N)c2cn1 [Compound 236, (1S,2S)—N-(6-(4-(1H-pyrazol-4-yl)pyridin-3-yl)-8-amino-2,7-naphthyridin-3-yl)-2-cyanocyclopropanecarboxamide]"
11,10.2,"Cc1cc(-c2cnn(C)c2)ncc1-c1cc2cc(NC(=O)[C@@H]3C[C@H]3CC#N)ncc2c(N)n1 [Compound 237, (1R,2S)—N-(8-amino-6-(4-methyl-6-(1-methyl-1H-pyrazol-4-yl)pyridin-3-yl)-2,7-naphthyridin-3-yl)-2-(cyanomethyl)cyclopropanecarboxamide]"
12,1.94,"Cc1cc(-c2cnn(C)c2)ncc1-c1cc2cc(NC(=O)[C@H]3C[C@@H]3CC#N)ncc2c(N)n1 [Compound 238, (1S,2R)—N-(8-amino-6-(4-methyl-6-(i-methyl-H-pyrazol-4-yl)pyridin-3-yl)-2,7-naphthyridin-3-yl)-2-(cyanomethyl)cyclopropanecarboxamide]"
